The values that follow come from ChEMBL document CHEMBL1201862, “PubChem BioAssay data set” (2004).

Where “and” joins values, the source holds several entries; their conditions need not be identical. Equal entries are not always repeated. Calls of active or inactive are those of the source.

Among the targets are Cytochrome P450 3A4 (Homo sapiens, UniProt P08684); Cytochrome P450 2C9 (Homo sapiens, UniProt P11712); Cytochrome P450 2D6 (Homo sapiens, UniProt P10635).
In series [1] the target is Luciferin 4-monooxygenase (Photinus pyralis, UniProt P08659). As to the kind of experiment: inhibition of purified Photinus pyralis luciferase – biochemical, luminescence, dose response (AID 1891).
Sequence of Luciferin 4-monooxygenase (P08659 whole entry): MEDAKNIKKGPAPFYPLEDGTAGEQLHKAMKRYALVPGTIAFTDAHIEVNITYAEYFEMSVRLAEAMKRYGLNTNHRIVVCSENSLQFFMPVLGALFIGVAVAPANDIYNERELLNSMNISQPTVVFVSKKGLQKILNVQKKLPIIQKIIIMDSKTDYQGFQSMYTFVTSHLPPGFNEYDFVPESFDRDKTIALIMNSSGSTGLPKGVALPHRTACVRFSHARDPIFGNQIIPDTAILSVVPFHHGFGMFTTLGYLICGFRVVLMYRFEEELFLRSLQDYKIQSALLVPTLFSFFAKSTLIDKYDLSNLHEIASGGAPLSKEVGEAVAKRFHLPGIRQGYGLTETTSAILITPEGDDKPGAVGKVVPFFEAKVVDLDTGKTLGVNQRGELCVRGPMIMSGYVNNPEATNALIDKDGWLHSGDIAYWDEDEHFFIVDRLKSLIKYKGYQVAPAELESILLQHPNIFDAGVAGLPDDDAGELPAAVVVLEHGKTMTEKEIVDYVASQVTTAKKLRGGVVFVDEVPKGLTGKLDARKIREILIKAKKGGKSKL
The nature of series [2]: Luminescence Cell-Based Dose Confirmation HTS to Identify Inhibitors of Platelet Dense Granule Release. [Related pubchem assays: 1663 (Primary HTS), 1678 (Summary of Project)]. The series is classed as functional.
For series [3], the system named is Streptococcus sp. 'group A'. As to the kind of experiment: Streptococcus pyogenes SK(-)GAS viability under kanamycin – luminescence, BacTiterGlo, confirmation, counter-screen for streptokinase expression inhibitor project, dose response (AID 1900). The class given is functional, organism-based.
The next series has as its target T1, Streptokinase A (Streptococcus pyogenes serotype M1, UniProt P10520).
T1 sequence (P10520 whole entry): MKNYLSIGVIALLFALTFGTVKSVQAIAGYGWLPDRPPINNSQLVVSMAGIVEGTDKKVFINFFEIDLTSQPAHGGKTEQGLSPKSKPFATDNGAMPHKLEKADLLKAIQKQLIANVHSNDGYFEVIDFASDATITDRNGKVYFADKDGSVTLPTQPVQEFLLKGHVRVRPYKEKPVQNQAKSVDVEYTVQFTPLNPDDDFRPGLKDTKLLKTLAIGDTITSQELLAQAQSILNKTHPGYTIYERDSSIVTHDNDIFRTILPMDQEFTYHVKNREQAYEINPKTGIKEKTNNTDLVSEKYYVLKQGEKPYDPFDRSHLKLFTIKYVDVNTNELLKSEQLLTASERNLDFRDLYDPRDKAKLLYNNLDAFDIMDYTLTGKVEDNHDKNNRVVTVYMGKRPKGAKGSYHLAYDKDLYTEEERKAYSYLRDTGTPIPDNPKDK
As to the kind of experiment: viability-normalized secreted streptokinase activity reduction – plasminogen activation absorbance, OD405, dose response (AID 1914).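 Further: secreted streptokinase activity via plasminogen activation per viability signal from cell pellet.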 The series is classed as functional, Streptococcus pyogenes M1 GAS.

For another series, the system named is Streptococcus. Kind of series: GAS UMAA2166 growth inhibition – luminescence, BacTiterGlo, counter-screen for streptokinase expression inhibitor project, dose response (AID 1915).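 Further: potency for reduction of bacterial viability or growth.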 The class given is functional, organism-based. For orientation: Counterscreens check selectivity or assay interference.
The target of another series is Cytochrome P450 2C19 (Homo sapiens, UniProt P33261). Kind of series: Cytochrome panel assay with activity outcomes. Panel member name: p450-cyp2c19 Compounds with AC50 equal or less than 10 uM are considered active. The class given is functional.
Sequence of Cytochrome P450 2C19 (P33261 whole entry): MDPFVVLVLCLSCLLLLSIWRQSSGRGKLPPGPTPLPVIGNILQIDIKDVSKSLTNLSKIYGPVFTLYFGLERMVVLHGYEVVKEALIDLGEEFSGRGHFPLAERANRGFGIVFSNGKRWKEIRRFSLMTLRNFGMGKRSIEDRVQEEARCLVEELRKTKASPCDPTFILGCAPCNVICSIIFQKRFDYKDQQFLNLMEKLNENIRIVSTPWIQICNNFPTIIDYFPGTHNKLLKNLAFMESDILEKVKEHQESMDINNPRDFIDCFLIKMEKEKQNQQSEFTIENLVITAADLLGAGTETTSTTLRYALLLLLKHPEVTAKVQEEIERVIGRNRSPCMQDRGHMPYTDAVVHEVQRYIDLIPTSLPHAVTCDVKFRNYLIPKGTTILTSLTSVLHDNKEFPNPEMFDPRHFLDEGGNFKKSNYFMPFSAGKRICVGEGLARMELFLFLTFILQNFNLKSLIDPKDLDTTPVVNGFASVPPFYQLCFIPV
Series [4] in a line: Trypanosoma cruzi growth suppression in host cells – NIH3T3 host cells, beta-gal luminescence, confirmation (AID 2044).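 Further: intracellular parasites grown in NIH/3T3 mouse fibroblasts as host cells; luminescent beta-galactosidase reporter signal from transgenic T. cruzi replicating inside host cells; inhibitors lower the luminescence signal.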 The class given is functional, cell-based.
The nature of series [5]: NIH3T3 cell viability loss – ATP luminescence, mouse fibroblasts, counter-screen, dose response (AID 2010).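 Further: cells exposed to compound for about 90 hours before reading.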 The series is classed as functional, cell-based.

The term EC50 denotes the concentration that produces a half-maximal response. In general, AC50 refers to the midpoint of the concentration-response curve, whichever way the signal moves.

Sequence of Cytochrome P450 2D6 (P10635 whole entry): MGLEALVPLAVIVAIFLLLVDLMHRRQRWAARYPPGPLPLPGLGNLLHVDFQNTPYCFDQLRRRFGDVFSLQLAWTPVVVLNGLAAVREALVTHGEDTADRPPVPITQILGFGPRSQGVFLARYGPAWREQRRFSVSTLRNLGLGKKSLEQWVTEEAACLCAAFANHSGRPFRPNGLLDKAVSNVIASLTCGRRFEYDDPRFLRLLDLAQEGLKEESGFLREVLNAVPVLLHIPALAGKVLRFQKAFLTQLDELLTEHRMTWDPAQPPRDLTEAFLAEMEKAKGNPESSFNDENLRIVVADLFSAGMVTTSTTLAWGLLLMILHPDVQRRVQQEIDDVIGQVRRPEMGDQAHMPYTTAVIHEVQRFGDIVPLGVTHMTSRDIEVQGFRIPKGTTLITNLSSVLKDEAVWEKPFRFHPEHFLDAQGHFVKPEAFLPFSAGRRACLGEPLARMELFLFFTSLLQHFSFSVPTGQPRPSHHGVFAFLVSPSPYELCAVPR
Sequence of Cytochrome P450 2C9 (P11712 whole entry): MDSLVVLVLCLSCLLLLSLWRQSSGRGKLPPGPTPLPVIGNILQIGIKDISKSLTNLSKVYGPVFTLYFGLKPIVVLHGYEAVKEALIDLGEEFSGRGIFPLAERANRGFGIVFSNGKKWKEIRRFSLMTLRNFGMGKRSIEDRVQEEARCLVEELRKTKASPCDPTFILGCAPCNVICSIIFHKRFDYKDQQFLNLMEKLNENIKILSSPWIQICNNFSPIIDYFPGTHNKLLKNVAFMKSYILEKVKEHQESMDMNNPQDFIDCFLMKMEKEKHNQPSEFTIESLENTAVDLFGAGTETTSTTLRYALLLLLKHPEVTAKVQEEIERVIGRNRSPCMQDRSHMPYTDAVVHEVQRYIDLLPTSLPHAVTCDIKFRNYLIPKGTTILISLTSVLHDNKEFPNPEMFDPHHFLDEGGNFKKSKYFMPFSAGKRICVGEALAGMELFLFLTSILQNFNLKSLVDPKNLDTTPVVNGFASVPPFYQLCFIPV
Sequence of Cytochrome P450 3A4 (P08684 whole entry): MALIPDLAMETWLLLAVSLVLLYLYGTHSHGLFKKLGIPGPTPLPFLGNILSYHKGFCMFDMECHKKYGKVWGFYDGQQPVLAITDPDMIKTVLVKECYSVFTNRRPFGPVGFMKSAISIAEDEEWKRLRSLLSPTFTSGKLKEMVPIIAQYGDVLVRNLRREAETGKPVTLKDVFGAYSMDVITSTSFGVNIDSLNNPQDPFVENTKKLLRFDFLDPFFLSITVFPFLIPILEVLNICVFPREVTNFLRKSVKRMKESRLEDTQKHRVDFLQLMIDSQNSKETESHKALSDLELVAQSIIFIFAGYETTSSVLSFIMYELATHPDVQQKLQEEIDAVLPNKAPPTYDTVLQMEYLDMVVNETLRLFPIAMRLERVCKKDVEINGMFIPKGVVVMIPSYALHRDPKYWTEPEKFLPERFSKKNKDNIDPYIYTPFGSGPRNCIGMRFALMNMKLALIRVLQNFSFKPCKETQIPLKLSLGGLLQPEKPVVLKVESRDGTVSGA

For `CCOC(=O)c1cnc2c(C#N)c(C)nn2c1-c1ccccc1`, the values for the EC50 in series [1] and in series [2] were > 112 µM (not active) and 54.1 µM (active), respectively.
On to `Cc1ccc(/C=C/C(=O)Nc2ccccc2C(N)=O)cc1`, for which the EC50 in series [1] was 3.26 µM (active); in series [2] it was 22.3 µM (active).
`CCCC[P+](CCCC)(CCCC)Cc1ccc(NC(=O)[C@@H](Cc2ccc3ccccc3c2)N=C(NC2CCCCC2)NC2CCCCC2)cc1`: at Cytochrome P450 3A4, the AC50 is 25.1 µM (inconclusive).
`CCCCNC(=O)c1onc(CSc2ccc(C(C)C)cc2)c1C(=O)O`: the figures for the EC50 (in series [3]; at Streptokinase A; in the series on Streptococcus) were 3.81 µM (active), 2.28 µM (active) and > 150 µM (not active), respectively.
As to `Cc1ccc(-c2nc(SC(C)C(=O)N3CCOCC3)n[nH]2)cc1` (stereo not drawn), the EC50 in series [1] and in series [2] was > 112 µM (not active) each time.
As for `COc1ccc2[nH]cc(CCNc3ccnc(-c4ccoc4)n3)c2c1`, at Cytochrome P450 2C9, the concentration at half-maximal activity (AC50) was 0.794 µM (inconclusive).
On to `O=c1[nH]c(=S)[nH]nc1Cc1ccccc1`, for which the AC50 result on Cytochrome P450 2C19 was “inconclusive”; on Cytochrome P450 2C9 it was 39.8 µM (inconclusive).
In the case of `O=C(CSc1nnc(NC(=O)c2cccc(F)c2)s1)NCC1CCCO1` (stereo not drawn), the EC50 (in series [3]; at Streptokinase A; with Streptococcus) was > 150 µM (not active) throughout.
Take `CN=C(S)NNC(=O)c1sccc1OCc1ccc(C)cc1`: at Cytochrome P450 3A4, the AC50 is 15.8 µM (inconclusive).
With `CCOc1ccc(C(=O)O/N=C(\N)c2ccccn2)cc1OCC`, the EC50 in series [1] and in series [2] was > 112 µM (not active) each time.
Regarding `CCOP(=O)(Cc1ccc(C(=O)CC)o1)OCC`, the EC50 (in series [3]; on Streptokinase A; in the series with Streptococcus) was > 150 µM (not active) each time.
Turning to `CC(=O)Nc1ccc(N2C(=O)CSC2c2c(F)cccc2Cl)cc1` (stereo not drawn), the AC50 at Cytochrome P450 2C19 (read-out: AC50) was 39.8 µM (inconclusive); at Cytochrome P450 3A4, 22.4 µM (inconclusive).
For `Cc1nn(C)cc1CNC(=O)C1CCC(=O)N(CC2CCCCC2)C1` (stereo not drawn), the EC50 in [1] and in series [2] was > 112 µM (not active) each time.
With `CCCCNC(=O)C(=O)NC(C)CCc1ccccc1` (stereo not drawn), the AC50 on Cytochrome P450 2C9 is 17.8 µM (inconclusive).
For `COc1cccc([C@@H]2Oc3ccc(Br)cc3C(=O)[C@H]2O)c1`, the AC50 on Cytochrome P450 3A4 is 6.31 µM (inconclusive).
Take `CCOC(=O)c1c(-c2ccc(C)o2)csc1NC(=O)COC(=O)c1ccc(NC(N)=O)cc1`: the EC50 in [3] was 1.75 µM (active); on Streptokinase A, 49.5 µM (active); in the series on Streptococcus, 68 µM (active).
Take `COc1cc(C[C@H](C)N)c(OC)cc1I`: on Cytochrome P450 3A4, the AC50 is 1.58 µM (inconclusive) and 31.6 µM (inconclusive).
In the case of `CCc1cc2c(COC(=O)c3cccc(NS(C)(=O)=O)c3)cc(=O)oc2cc1O`, the EC50 was 6.8 µM (active) in series [3], > 150 µM (not active) on Streptokinase A and 100 µM (active) in the series with Streptococcus.
Take `CCCn1nc2cc(C(=O)NCCc3ccc(C)cc3)ccc2c1OCC`: on Cytochrome P450 2C9, the AC50 is 39.8 µM (inconclusive).
Regarding `O=C1NC(=O)/C(=C\c2ccc(OCc3ccccc3)cc2)S1`, the figures for the EC50 (in [3]; on Streptokinase A; in the series with Streptococcus) were 52.8 µM (active), > 50 µM (not active) and > 150 µM (not active), respectively.
As for `Cc1ccc(S(=O)(=O)N2CCCCC2)cc1NC(=O)CN1C(=O)CN(C)C1=O`, the 50% effective concentration (EC50) (in series [3]; at Streptokinase A; with Streptococcus) was > 150 µM (not active) throughout.
With `Cc1cc(N)ccc1NC(=O)c1ccccc1`, the AC50 at Cytochrome P450 2C19 (read-out: AC50) was 20 µM (inconclusive); on Cytochrome P450 2C9, 0.0224 µM (inconclusive).
For the compound `COc1ccc(-c2nc3cnc(OC)nc3n(Cc3cccs3)c2=O)cc1`, the half-maximal activity concentration (AC50) at Cytochrome P450 2D6 is 7.94 µM (inconclusive); on Cytochrome P450 2C9, 5.01 µM (inconclusive).
For the compound `Nc1ccn(-c2ccc(Cl)cc2)c(=O)c1`, the EC50 in [1] and in series [2] was > 112 µM (not active) each time.
Turning to `COC(=O)c1c(NC(=O)C2CC(=O)NN2Cc2ccccc2)sc(C)c1C` (stereo not drawn), the EC50 in series [1] and in [2] was > 112 µM (not active) throughout.
Take `CCN(CC)S(=O)(=O)c1ccc2c(c1)nc(CCC(=O)O)n2C`: the EC50 in [1] and in [2] was > 112 µM (not active) in each case.
`CCn1cc(CN2CCC(n3nccc3NC(=O)Cc3ccccc3)CC2)cn1`: the concentration for a half-maximal effect (EC50) (in [3]; at Streptokinase A; in the series with Streptococcus) was > 150 µM (not active) each time.
As for `Cc1cc(C)c(S(=O)(=O)N2CCCCC2)c(C)c1N(C)S(=O)(=O)c1ccccc1`, the AC50 on Cytochrome P450 3A4 was 1.12 µM (inconclusive).
`Cc1c(NC(=O)/C=C/C(=O)O)cccc1[N+](=O)[O-]`: the AC50 was 15.8 µM (inconclusive) on Cytochrome P450 2C19 (read-out: AC50) and 28.2 µM (inconclusive) on Cytochrome P450 2C9.
As to `Cc1noc(C)c1C(=O)Nc1ccc2ccccc2c1`, the EC50 (in series [3]; at Streptokinase A; with Streptococcus) was > 150 µM (not active) throughout.
Consider `c1ccc(-n2c3ccccc3c3ccccc32)cc1`, for which the EC50 in series [3] is 6.43 µM (active); on Streptokinase A, > 150 µM (not active); with Streptococcus, > 150 µM (not active).
For `O=C(NCC(=O)N(c1ccccc1)C(C(=O)NC1CCCC1)c1cccnc1)c1cccs1` (stereo not drawn), the AC50 at Cytochrome P450 2C19 (read-out: AC50) was 15.8 µM (inconclusive); at Cytochrome P450 2C9, 17.8 µM (inconclusive).
As to `CCN(CC)CCn1c(=S)[nH]c2cc3c(cc2c1=O)OCO3`, the figures for the AC50 on Cytochrome P450 2C19 (read-out: AC50) and on Cytochrome P450 3A4 were 39.8 µM (inconclusive) and 14.1 µM (inconclusive), respectively.
As to `O=C(NNC1=Nc2cccc3cccc1c23)c1ccc(Br)cc1`, the EC50 was 0.324 µM (active) in [3]; > 150 µM (not active) on Streptokinase A; 1.12 µM (active) in [4]; 6.29 µM (active) in [5]; 10.6 µM (active) in the series with Streptococcus.
Consider `COc1ccc(CN2CCNC(=O)C2CC(=O)NCC(C)(C)N2CCOCC2)cc1C` (stereo not drawn), for which the EC50 in [1] and in series [2] was > 112 µM (not active) each time.
As to `CN(Cc1ccco1)c1nc(-c2cccc(C#N)c2)nc2ccccc12`, the AC50 at Cytochrome P450 2C9 was 1 µM (inconclusive).
For the compound `Cc1cccc(C)c1NC(=O)C(c1ccccc1)N1CCC1=O` (stereo not drawn), the AC50 was 20 µM (inconclusive) at Cytochrome P450 2C19 (read-out: AC50) and 25.1 µM (inconclusive) on Cytochrome P450 3A4.
With `Cc1ccc(OCC(O)CNC(=O)c2ccccc2C(=O)O)cc1` (stereo not drawn), the AC50 at Cytochrome P450 2C9 was 0.00562 µM (inconclusive).
Same read-out and setting: the figure for `Cc1ccc(CNC(=O)C2CCC(=O)N2C2CCCCC2)cc1` (stereo not drawn) is 7.08 µM (inconclusive).
For the compound `CCCN1CCc2cc(O)cc3c2[C@H]1Cc1ccc(O)c(O)c1-3`, the AC50 on Cytochrome P450 2D6 was 15.8 µM (inconclusive); on Cytochrome P450 2C9 it was 39.8 µM (inconclusive).
Take `Oc1oc(-c2ccccc2)nc1/C=N/c1ccccc1`: the AC50 at Cytochrome P450 3A4 is 25.1 µM (inconclusive).
Turning to `COc1cccc(/C=N/NC(=O)C(=O)N/N=C/c2cccc(OC)c2OC)c1OC`, the EC50 in series [1] and in series [2] was > 112 µM (not active) throughout.
As for `Cc1cccc(CNc2ncnc3ccc(-c4ccc(C(=O)N(C)C)cc4)cc23)c1`, the AC50 on Cytochrome P450 2C19 (read-out: AC50) was 39.8 µM (inconclusive); on Cytochrome P450 2D6 it was 25.1 µM (inconclusive); on Cytochrome P450 2C9, 0.794 µM (inconclusive).
